Test results as given in PMC3355380, “Back to the Future: Lessons Learned in Modern Target-based and Whole-Cell Lead Optimization of Antimalarials” (Current Topics in Medicinal Chemistry, 2012).
Marks after values point to notes of the source that are not given here.

What was measured:
[1] = tested on: panel of cytochrome P450 isoforms; assay: in vitro
Huh7 = details: human
P. falciparum 3D7 = P. falciparum 3D7 proliferation assay; type: cell-based, Plasmodium falciparum; details: Plasmodium falciparum, 3D7; imidazolopiperazine hits; mean of two experiments; read-out: P. falciparum 3D7 EC50
Source text: (§1) We screened both our in-house compound collection (~2.3M compounds) and natural products library (12,000 compounds) using a cell based Plasmodium falciparum proliferation assay. This screen provided data on a large number of chemically diverse anti-malarial compounds. These nearly 5700 hits have been deposited into the public EBI database by GNF/Novartis. A number of these hits originated from kinase-directed libraries and many of which are pan-kinase inhibitors. De-convoluting and eliminating inherent kinase activity with many of these scaffolds while maintaining cellular potency was the first step in the hit-to-lead phase for these particular chemotypes. What follows is a summary of the chemical optimization of some kinase-like and non-kinase scaffolds which came out of the whole-cell screening effort.

hERG = hERG (Homo sapiens, UniProt Q12809); assay: hERG binding assay
aqueous solubility = type: physicochemical; details: aqueous medium, pH 6.8, aqueous buffer
P. falciparum W2 = P. falciparum W2 proliferation assay; type: cell-based; details: Plasmodium falciparum, imidazolopiperazine hits, mean of two experiments
Source text: as §1

Plasmodium berghei = assay: P. berghei murine model; type: in vivo
wild type P. falciparum = tested on: wild type P. falciparum; set-up: method as in PMID 20350951; details: read-out: EC50 on wild type P. falciparum in vitro; cited from earlier work
[2] = 2-week rat toxicology study; type: in vivo
hDHFR (human DHFR) = biological target: hDHFR (human DHFR); set-up: method as in PMID 20350951; details: cited from earlier work
[3] = biological target: QM-PfDHFR (quadruple mutant PfDHFR); set-up: method as in PMID 20350951; details: cited from earlier work
[4] = biological target: WT-PfDHFR (wild type PfDHFR); set-up: method as in PMID 20350951; details: cited from earlier work

hERG, sequence (Q12809 whole entry): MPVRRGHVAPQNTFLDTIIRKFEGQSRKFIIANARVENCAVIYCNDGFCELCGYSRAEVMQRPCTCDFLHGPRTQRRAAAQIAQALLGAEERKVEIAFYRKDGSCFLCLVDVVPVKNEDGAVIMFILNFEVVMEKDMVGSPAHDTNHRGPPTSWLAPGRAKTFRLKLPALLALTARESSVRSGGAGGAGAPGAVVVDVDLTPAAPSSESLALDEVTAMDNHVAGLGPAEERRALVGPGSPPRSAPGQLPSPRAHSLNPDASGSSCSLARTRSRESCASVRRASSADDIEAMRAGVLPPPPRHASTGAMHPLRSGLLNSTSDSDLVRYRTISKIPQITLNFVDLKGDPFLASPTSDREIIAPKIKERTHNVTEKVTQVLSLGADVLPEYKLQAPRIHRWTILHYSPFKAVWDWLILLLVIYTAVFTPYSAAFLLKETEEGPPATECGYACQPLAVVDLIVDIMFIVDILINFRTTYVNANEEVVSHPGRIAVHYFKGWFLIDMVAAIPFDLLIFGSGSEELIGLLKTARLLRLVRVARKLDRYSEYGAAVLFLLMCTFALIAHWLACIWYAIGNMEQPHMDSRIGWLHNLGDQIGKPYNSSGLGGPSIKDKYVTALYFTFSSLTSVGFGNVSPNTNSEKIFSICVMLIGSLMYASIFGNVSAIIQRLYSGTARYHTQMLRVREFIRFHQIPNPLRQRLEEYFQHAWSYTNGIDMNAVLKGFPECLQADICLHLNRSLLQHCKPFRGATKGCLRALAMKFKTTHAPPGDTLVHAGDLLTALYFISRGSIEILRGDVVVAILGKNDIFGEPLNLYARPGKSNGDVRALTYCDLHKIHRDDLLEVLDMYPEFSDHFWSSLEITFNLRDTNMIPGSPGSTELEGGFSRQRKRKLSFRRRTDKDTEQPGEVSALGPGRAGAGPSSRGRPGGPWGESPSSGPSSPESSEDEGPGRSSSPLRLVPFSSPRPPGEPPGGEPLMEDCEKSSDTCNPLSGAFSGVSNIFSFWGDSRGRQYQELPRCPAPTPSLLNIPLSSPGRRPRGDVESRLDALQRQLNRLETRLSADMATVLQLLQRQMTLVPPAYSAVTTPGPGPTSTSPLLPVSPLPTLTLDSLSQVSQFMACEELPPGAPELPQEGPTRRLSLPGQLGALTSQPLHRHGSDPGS

## NCC(=O)N1CCn2c(nc(-c3ccccc3)c2Nc2ccc3c(c2)OCO3)C1 [Compound 18a]
[1]
  IC50: > 10000 nM
Huh7
  Cytotoxicity (µM) Huh7: > 10 µM
P. falciparum 3D7
  EC50: 63 nM
hERG
  IC50: 19000 nM
Aqueous solubility
  solubility: > 175 µM
P. falciparum W2
  EC50: 97 nM

## COc1ccc(OC)c(CNc2ccc3nc(N)nc(N)c3c2Cl)c1 [QN254, 5-Chloro-N'6'-(2 5 di-methoxy-benzyl)-quinazoline-2 4 6-triamine]
Plasmodium berghei; 3 x 30 (mg/kg)
  Cure Rate (%): 80%
  Toxicity Rate (%): 0%
Plasmodium berghei; 3 x 30 (mg/kg), control survival 5.6 to 6.2 days
  Average Survival: 28.4 days
Plasmodium berghei; 3 x 60 (mg/kg)
  Cure Rate (%): 60%
  Parasitemia Reduction (%): > 99.99%
Plasmodium berghei; 3 x 60 (mg/kg), mice died around day 10 and were parasite free
  Toxicity Rate (%): 40^b %
Plasmodium berghei; 3 x 100 (mg/kg)
  Cure Rate (%): 20%
  Parasitemia Reduction (%): > 99.99%
Plasmodium berghei; 3 x 100 (mg/kg), mice died around day 10 and were parasite free
  Toxicity Rate (%): 80^b %
Plasmodium berghei; dosing regimen 3 x 30 (mg/kg), oral, compared to untreated controls
  Parasitemia Reduction (%): > 99.99%
Wild type P. falciparum
  EC50: 9 nM
[2]; 2-week toxicology study
  histopathological analysis: significant gastrointestinal and bone marrow toxicity
[2]; 2 weeks, repeated oral administration of greater than 50 mg/kg
  tolerability: not tolerated
hDHFR (human DHFR)
  Ki: 10.2 ± 0.6 nM
[3]
  Ki: 0.58 ± 0.06 nM
[4]
  Ki: 0.39 ± 0.05 nM
